Marks after values point to notes of the source that are not given here.
How the values were obtained:
Type in all cases: in vivo
db/db mice [1] = assay: Oral glucose tolerance test (OGTT); set-up: OGTT AUC: unit not given here
Description: Four to five weeks old db/db mice (BKS.Cg-Dock7^m+/+Lepr^db/JNarl) and m/m mice (BKS.Cg-Dock7^m+/Dock7^m+) were obtained from National Laboratory Animal Center ([…], Taiwan). […] PMI Nutrition International, Brentwood, Mo.) and water ad libitum. […] Blood was sampled from the tail vein, and FPG levels were measured and recorded as the basic blood glucose levels. […] The total area under the curve (AUC) in OGTT was plotted and calculated by the Area Under Coordinates Program (StatsToDo Server, Department of Obstetrics and Gynecology, Chinese University of Hong Kong).

db/db mice [2] = assay: Plasma biochemical parameters (AST, ALT, BUN, Cr, HbA1c)
Description: Inflammatory markers such as serum aspartate aminotransferase (AST), alanine aminotransferase (ALT), blood urea nitrogen (BUN), creatinine (Cr), and hemoglobin Alc (HbAlc) were measured using a BMC-Hitachi 717 chemistry auto analyzer.

db/db mice [3] = assay: Histopathological assessment (H&E stain)
Description: For histopathological assessment, all mice were sacrificed by 95% CO2 asphyxiation at the end of the study period. Their brain, liver, kidney, pancreas, and epididymal fat pads were removed, fixed in 10% phosphate-buffered formalin, and embedded in paraffin. Tissues embedded in paraffin were cut into […] sections that were then stained with hematoxylin-eosin (i.e., H&E stain).

[4] = Ex 1: db/db mice, ertapenem i.p. 0.41 mg/g bw/day, week 3
[5] = Ex 3, after the treatments had been stopped for 6 weeks
[6] = Ex 3: db/db mice, daily dosing 3 weeks at doses of Table 10, week 9

## C[C@@H](O)[C@H]1C(=O)N2C(C(=O)O)=C(S[C@@H]3CN[C@H](C(=O)Nc4cccc(C(=O)O)c4)C3)[C@H](C)[C@H]12 [DMH, ertapenem]
db/db mice [1]; Ex 2 G6 db/db, DMH i.p. 0.4 mg/g bw/day, dosing 6 weeks, Week 6, 15 min
  Level of OGTT (blood glucose): 747 ± 38 mg/dL
db/db mice [1]; Ex 2 G6 db/db, DMH i.p. 0.4 mg/g bw/day, dosing 6 weeks, Week 6, 30 min
  Level of OGTT (blood glucose): 669 ± 69 mg/dL
db/db mice [1]; Ex 2 G6 db/db, DMH i.p. 0.4 mg/g bw/day, dosing 6 weeks, Week 6, 60 min
  Level of OGTT (blood glucose): 418 ± 56 mg/dL
db/db mice [1]; Ex 2 G6 db/db, DMH i.p. 0.4 mg/g bw/day, dosing 6 weeks, Week 6, 120 min
  Level of OGTT (blood glucose): 223 ± 27^ab
db/db mice [1]; Ex 2 G6 db/db, DMH i.p. 0.4 mg/g bw/day, dosing 6 weeks, Week 12, 0 min
  Level of OGTT (blood glucose): 166 ± 26^ac
db/db mice [1]; Ex 2 G6 db/db, DMH i.p. 0.4 mg/g bw/day, dosing 6 weeks, Week 12, 15 min
  Level of OGTT (blood glucose): 859 ± 50 mg/dL
db/db mice [1]; Ex 2 G6 db/db, DMH i.p. 0.4 mg/g bw/day, dosing 6 weeks, Week 12, 30 min
  Level of OGTT (blood glucose): 698 ± 65 mg/dL
db/db mice [1]; Ex 2 G6 db/db, DMH i.p. 0.4 mg/g bw/day, dosing 6 weeks, Week 12, 60 min
  Level of OGTT (blood glucose): 489 ± 55 mg/dL
db/db mice [1]; Ex 2 G6 db/db, DMH i.p. 0.4 mg/g bw/day, dosing 6 weeks, Week 12, 120 min
  Level of OGTT (blood glucose): 324 ± 47 mg/dL
db/db mice [1]; Ex 2 G6 db/db, DMH i.p. 0.4 mg/g bw/day, dosing 6 weeks, Week 16, 0 min
  Level of OGTT (blood glucose): 108 ± 22^ab
db/db mice [1]; Ex 2 G6 db/db, DMH i.p. 0.4 mg/g bw/day, dosing 6 weeks, Week 16, 15 min
  Level of OGTT (blood glucose): 543 ± 57 mg/dL
db/db mice [1]; Ex 2 G6 db/db, DMH i.p. 0.4 mg/g bw/day, dosing 6 weeks, Week 16, 30 min
  Level of OGTT (blood glucose): 650 ± 29^bc
db/db mice [1]; Ex 2 G6 db/db, DMH i.p. 0.4 mg/g bw/day, dosing 6 weeks, Week 16, 60 min
  Level of OGTT (blood glucose): 535 ± 43^bc
db/db mice [1]; Ex 2 G6 db/db, DMH i.p. 0.4 mg/g bw/day, dosing 6 weeks, Week 16, 120 min
  Level of OGTT (blood glucose): 244 ± 35^ab
db/db mice [1]; Ex 2 G6 db/db, DMH i.p. 0.4 mg/g bw/day, dosing 6 weeks, Week 18, 0 min
  Level of OGTT (blood glucose): 266 ± 35 mg/dL
db/db mice [1]; Ex 2 G6 db/db, DMH i.p. 0.4 mg/g bw/day, dosing 6 weeks, Week 18, 15 min
  Level of OGTT (blood glucose): 872 ± 46 mg/dL
db/db mice [1]; Ex 2 G6 db/db, DMH i.p. 0.4 mg/g bw/day, dosing 6 weeks, Week 18, 30 min
  Level of OGTT (blood glucose): 860 ± 58 mg/dL
db/db mice [1]; Ex 2 G6 db/db, DMH i.p. 0.4 mg/g bw/day, dosing 6 weeks, Week 18, 60 min
  Level of OGTT (blood glucose): 637 ± 64 mg/dL
db/db mice [1]; Ex 2 G6 db/db, DMH i.p. 0.4 mg/g bw/day, dosing 6 weeks, Week 18, 120 min
  Level of OGTT (blood glucose): 480 ± 73 mg/dL
db/db mice [1]; Ex 2 G6 db/db, DMH i.p. 0.4 mg/g bw/day, dosing 6 weeks, week 6
  OGTT AUC: 884 ± 84^b
db/db mice [1]; Ex 2 G6 db/db, DMH i.p. 0.4 mg/g bw/day, dosing 6 weeks, week 12
  OGTT AUC: 1026 ± 94^b
db/db mice [1]; Ex 2 G6 db/db, DMH i.p. 0.4 mg/g bw/day, dosing 6 weeks, week 16
  OGTT AUC: 916 ± 68^b
db/db mice [1]; Ex 2 G6 db/db, DMH i.p. 0.4 mg/g bw/day, dosing 6 weeks, week 18
  OGTT AUC: 1291 ± 118^b
db/db mice [1]; Ex 3, medications stopped for at least 3 weeks (FIG. 6A, 6B)
  Regulation of blood glucose homeostasis (OGTT glucose vs G8): still effective
db/db mice [1]; Ex 3: db/db mice, daily dosing 3 weeks at doses of Table 10, Week 6 (stopped for 3 weeks)
  OGTT AUC: 1263 ± 135^b
db/db mice [1]; Ex 3: db/db mice, daily dosing 3 weeks at doses of Table 10, Week 9 (stopped for 6 weeks)
  OGTT AUC: 1356 ± 149^bc
db/db mice [2]; Ex 1, week 3
  Levels of AST, ALT, BUN, and HbA1c in the diabetes mice: significantly reduced
db/db mice [2]; [4]
  ALT: 34 ± 6 U/L
  AST: 61 ± 7 U/L
  BUN: 27 ± 2 mg/dL
  Creatinine: 0.57 ± 0.02 mg/dL
  HbA1c: 6.1 ± 0.8 %
db/db mice [2]; [5]
  Level of ALT: reduce
  Level of AST: reduce
  Level of HbA1c: reduce
db/db mice [2]; [6]
  ALT: 79 ± 8^bc U/L
  AST: 127 ± 13^ad U/L
  BUN: 44 + 2^d mg/dL
  Creatinine: 0.467 ± 0.01^bd mg/dL
  HbA1c: 5.8 ± 0.3^d %
db/db mice [3]; Ex 1, after 3 weeks 0.41 mg/g bw/day i.p.
  Injuries in brain, liver, kidney, pancreas, and epididymal fat pads: no significant injuries
db/db mice [3]; Ex 1, hepatocyte cytoplasm around central venous region
  Severity and incidence of liver glycogen storage vs DB group: slighter
db/db mice [3]; Ex 2
  Injuries in liver, kidney, pancreas, and epididymal fat pads: No significant injuries
